US9340590B2 (priority 2011, dated 2016)
Read-outs that look alike come from different tables or passages of the source. Positions of bridges follow the written chain, without caps; N, C: chain ends. Residues, ends and D or L forms follow the SMILES beside them.

Target: hNav1.7 (Homo sapiens, UniProt Q15858)
Test: cell-based
Format: cell-based
Conditions: read-out: IWQ Use Nav1.7
[1] = IonWorks Quattro, clamped to −110 mV, depolarized to −10 mV, 5 min after compound, n=2

Sequence of hNav1.7 (Q15858 whole entry, looked up): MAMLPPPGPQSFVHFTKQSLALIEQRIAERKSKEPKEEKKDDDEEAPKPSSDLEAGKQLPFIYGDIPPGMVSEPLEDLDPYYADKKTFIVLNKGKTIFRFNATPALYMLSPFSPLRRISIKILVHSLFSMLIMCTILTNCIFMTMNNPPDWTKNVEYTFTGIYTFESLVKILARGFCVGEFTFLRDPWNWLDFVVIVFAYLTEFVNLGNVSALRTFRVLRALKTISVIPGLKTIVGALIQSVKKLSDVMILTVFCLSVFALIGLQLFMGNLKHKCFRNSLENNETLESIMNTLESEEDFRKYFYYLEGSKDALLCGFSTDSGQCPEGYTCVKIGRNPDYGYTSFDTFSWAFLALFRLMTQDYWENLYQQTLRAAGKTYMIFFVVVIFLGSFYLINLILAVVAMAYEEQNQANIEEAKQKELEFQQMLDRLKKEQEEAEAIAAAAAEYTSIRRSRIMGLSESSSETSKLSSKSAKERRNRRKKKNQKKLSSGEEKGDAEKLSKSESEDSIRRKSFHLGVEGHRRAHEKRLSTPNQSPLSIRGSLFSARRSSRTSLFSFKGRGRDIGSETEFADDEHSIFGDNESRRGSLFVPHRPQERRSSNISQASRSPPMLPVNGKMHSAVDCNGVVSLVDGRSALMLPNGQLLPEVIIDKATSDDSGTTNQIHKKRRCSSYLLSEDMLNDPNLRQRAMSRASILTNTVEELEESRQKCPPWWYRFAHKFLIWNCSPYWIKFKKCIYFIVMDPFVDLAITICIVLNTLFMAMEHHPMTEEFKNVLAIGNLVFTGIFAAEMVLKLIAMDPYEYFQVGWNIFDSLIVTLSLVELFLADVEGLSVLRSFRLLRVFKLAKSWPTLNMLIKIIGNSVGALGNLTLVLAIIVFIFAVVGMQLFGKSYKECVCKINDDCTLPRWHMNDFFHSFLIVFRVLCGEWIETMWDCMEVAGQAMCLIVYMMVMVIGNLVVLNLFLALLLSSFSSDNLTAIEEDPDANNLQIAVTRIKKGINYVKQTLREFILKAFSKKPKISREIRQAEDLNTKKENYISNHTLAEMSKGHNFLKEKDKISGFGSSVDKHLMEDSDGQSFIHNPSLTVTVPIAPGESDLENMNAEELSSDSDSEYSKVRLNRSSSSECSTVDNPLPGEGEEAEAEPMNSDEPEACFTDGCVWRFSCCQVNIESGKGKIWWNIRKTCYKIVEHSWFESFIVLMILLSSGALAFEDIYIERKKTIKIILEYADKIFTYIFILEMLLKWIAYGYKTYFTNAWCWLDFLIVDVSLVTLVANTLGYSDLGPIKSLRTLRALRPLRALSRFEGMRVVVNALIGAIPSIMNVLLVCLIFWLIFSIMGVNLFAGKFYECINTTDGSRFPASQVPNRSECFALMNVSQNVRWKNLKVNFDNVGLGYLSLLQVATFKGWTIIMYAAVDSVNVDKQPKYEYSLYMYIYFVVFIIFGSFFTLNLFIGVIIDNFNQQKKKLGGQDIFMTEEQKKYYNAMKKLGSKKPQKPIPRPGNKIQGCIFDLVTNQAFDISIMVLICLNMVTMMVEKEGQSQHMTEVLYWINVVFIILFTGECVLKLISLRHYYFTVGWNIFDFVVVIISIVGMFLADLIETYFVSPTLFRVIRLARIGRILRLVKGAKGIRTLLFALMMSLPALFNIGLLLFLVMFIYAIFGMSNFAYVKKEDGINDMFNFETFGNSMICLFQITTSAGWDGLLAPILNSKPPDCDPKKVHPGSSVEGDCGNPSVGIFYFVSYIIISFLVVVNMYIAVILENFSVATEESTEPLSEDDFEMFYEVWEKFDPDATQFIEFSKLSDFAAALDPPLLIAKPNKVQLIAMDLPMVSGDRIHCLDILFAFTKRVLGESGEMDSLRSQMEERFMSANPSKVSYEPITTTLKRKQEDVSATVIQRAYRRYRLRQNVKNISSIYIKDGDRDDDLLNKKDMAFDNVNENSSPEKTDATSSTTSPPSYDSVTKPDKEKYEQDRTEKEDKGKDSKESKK

SMILES: CC[C@H](C)[C@@H]1NC(=O)[C@@H]2CSSC[C@@H]3NC(=O)[C@H](C(C)C)NC(=O)[C@H](CC(C)C)NC(=O)[C@H](CC(N)=O)NC(=O)[C@@H]4CCCN4C(=O)[C@H](CCCNC(=N)N)NC(=O)[C@H](CSSC[C@H](NC(=O)[C@@H](N)CC(=O)O)C(=O)N[C@@H](CC(C)C)C(=O)NCC(=O)N[C@@H](Cc4ccccc4)C(=O)N[C@@H](CCSC)C(=O)N[C@@H](CCCNC(=N)N)C(=O)N[C@@H](CCCCN)C(=O)N2)NC(=O)[C@H](CSSC[C@@H](C(=O)N[C@@H](CCCCN)C(=O)N[C@@H](Cc2ccc(O)cc2)C(=O)N[C@@H](CCC(=O)O)C(=O)N[C@@H](Cc2ccccc2)C(N)=O)NC(=O)[C@H](Cc2c[nH]c4ccccc24)NC(=O)[C@H](CCCCN)NC(=O)[C@H](Cc2c[nH]cn2)NC(=O)[C@H]([C@@H](C)O)NC(=O)[C@H](CCCNC(=N)N)NC(=O)[C@H](CO)NC3=O)NC(=O)[C@H](CCCCN)NC(=O)[C@H](CC(=O)O)NC(=O)[C@H](CC(N)=O)NC(=O)[C@H](CC(=O)O)NC(=O)[C@@H]2CCCN2C1=O [SEQ ID NO: 33, [Glu33]GpTx-1] (H-DCLGFMRKCIPDNDKCCRPNLVCSRTHKWCKYEF-NH2; disulfide 2-17, 9-23, 16-30)
- IC50: 560 nM

SMILES: CC[C@H](C)[C@@H]1NC(=O)[C@@H]2CSSC[C@@H]3NC(=O)[C@H](C(C)C)NC(=O)[C@H](CC(C)C)NC(=O)[C@H](CC(N)=O)NC(=O)[C@@H]4CCCN4C(=O)[C@H](CCCNC(=N)N)NC(=O)[C@H](CSSC[C@H](NC(=O)[C@@H](N)CCCCN)C(=O)N[C@@H](CC(C)C)C(=O)NCC(=O)N[C@@H](Cc4ccccc4)C(=O)N[C@@H](CCSC)C(=O)N[C@@H](CCCNC(=N)N)C(=O)N[C@@H](CCCCN)C(=O)N2)NC(=O)[C@H](CSSC[C@@H](C(=O)N[C@@H](CCCCN)C(=O)N[C@@H](Cc2ccc(O)cc2)C(=O)N[C@H](C(=O)N[C@@H](Cc2ccccc2)C(N)=O)C(C)C)NC(=O)[C@H](Cc2c[nH]c4ccccc24)NC(=O)[C@H](CCCCN)NC(=O)[C@H](Cc2c[nH]cn2)NC(=O)[C@H]([C@@H](C)O)NC(=O)[C@H](CCCNC(=N)N)NC(=O)[C@H](CO)NC3=O)NC(=O)[C@H](CCCCN)NC(=O)[C@H](CC(=O)O)NC(=O)[C@H](CC(N)=O)NC(=O)[C@H](CC(=O)O)NC(=O)[C@@H]2CCCN2C1=O [SEQ ID NO: 37] (H-KCLGFMRKCIPDNDKCCRPNLVCSRTHKWCKYVF-NH2; disulfide 2-17, 9-23, 16-30)
- IC50 [1]: 150 nM

SMILES: CC[C@H](C)[C@@H]1NC(=O)[C@@H]2CSSC[C@@H]3NC(=O)[C@H](C(C)C)NC(=O)[C@H](CC(C)C)NC(=O)[C@H](CC(N)=O)NC(=O)[C@@H]4CCCN4C(=O)[C@H](CCCNC(=N)N)NC(=O)[C@H](CSSC[C@H](NC(=O)[C@@H](N)CCCNC(=N)N)C(=O)N[C@@H](CC(C)C)C(=O)NCC(=O)N[C@@H](Cc4ccccc4)C(=O)N[C@@H](CCSC)C(=O)N[C@@H](CCCNC(=N)N)C(=O)N[C@@H](CCCCN)C(=O)N2)NC(=O)[C@H](CSSC[C@@H](C(=O)N[C@@H](CCCCN)C(=O)N[C@@H](Cc2ccc(O)cc2)C(=O)N[C@H](C(=O)N[C@@H](Cc2ccccc2)C(N)=O)C(C)C)NC(=O)[C@H](Cc2c[nH]c4ccccc24)NC(=O)[C@H](CCCCN)NC(=O)[C@H](Cc2c[nH]cn2)NC(=O)[C@H]([C@@H](C)O)NC(=O)[C@H](CCCNC(=N)N)NC(=O)[C@H](CO)NC3=O)NC(=O)[C@H](CCCCN)NC(=O)[C@H](CC(=O)O)NC(=O)[C@H](CC(N)=O)NC(=O)[C@H](CC(=O)O)NC(=O)[C@@H]2CCCN2C1=O [SEQ ID NO: 62] (H-RCLGFMRKCIPDNDKCCRPNLVCSRTHKWCKYVF-NH2; disulfide 2-17, 9-23, 16-30)
- IC50: 110 nM

SMILES: CSCC[C@@H]1NC(=O)[C@H](Cc2ccccc2)NC(=O)CNC(=O)[C@H](CC(C)C)NC(=O)[C@@H](NC(=O)[C@@H](N)CC(=O)O)CSSC[C@@H]2NC(=O)[C@@H]3CSSC[C@@H](C(=O)N[C@@H](CCCCN)C(=O)N[C@@H](Cc4ccc(O)cc4)C(=O)N[C@H](C(=O)N[C@@H](Cc4ccccc4)C(N)=O)C(C)C)NC(=O)[C@H](Cc4c[nH]c5ccccc45)NC(=O)[C@H](CCCCN)NC(=O)[C@H](Cc4c[nH]cn4)NC(=O)[C@H]([C@@H](C)O)NC(=O)[C@H](CCCNC(=N)N)NC(=O)[C@H](CO)NC(=O)[C@H](CSSC[C@H](NC(=O)[C@H](CCCCN)NC(=O)[C@H](CCCNC(=N)N)NC1=O)C(=O)N[C@@H](CC(=O)O)C(=O)N1CCC[C@H]1C(=O)N[C@@H](CC(=O)O)C(=O)N[C@@H](CC(N)=O)C(=O)N[C@@H](CC(=O)O)C(=O)N[C@@H](CCCCN)C(=O)N3)NC(=O)[C@H](C(C)C)NC(=O)[C@H](CC(C)C)NC(=O)[C@H](CC(N)=O)NC(=O)[C@@H]1CCCN1C(=O)[C@H](CCCNC(=N)N)NC2=O [SEQ ID NO: 119, [Asp10]GpTx-1] (H-DCLGFMRKCDPDNDKCCRPNLVCSRTHKWCKYVF-NH2; disulfide 2-17, 9-23, 16-30)
- IC50: 220 nM

SMILES: CC[C@H](C)[C@@H]1NC(=O)[C@@H]2CSSC[C@@H]3NC(=O)[C@H](C(C)C)NC(=O)[C@H](CC(C)C)NC(=O)[C@H](CC(N)=O)NC(=O)[C@@H]4CCCN4C(=O)[C@H](CCCNC(=N)N)NC(=O)[C@H](CSSC[C@H](NC(=O)[C@@H](N)CC(=O)O)C(=O)N[C@@H](CC(C)C)C(=O)N[C@@H](C)C(=O)N[C@@H](Cc4ccccc4)C(=O)N[C@@H](CCSC)C(=O)N[C@@H](CCCNC(=N)N)C(=O)N[C@@H](CCCCN)C(=O)N2)NC(=O)[C@H](CSSC[C@@H](C(=O)N[C@@H](CCCCN)C(=O)N[C@@H](Cc2ccc(O)cc2)C(=O)N[C@H](C(=O)N[C@@H](Cc2ccccc2)C(N)=O)C(C)C)NC(=O)[C@H](Cc2c[nH]c4ccccc24)NC(=O)[C@H](CCCCN)NC(=O)[C@H](Cc2c[nH]cn2)NC(=O)[C@H]([C@@H](C)O)NC(=O)[C@H](CCCNC(=N)N)NC(=O)[C@H](CO)NC3=O)NC(=O)[C@H](CCCCN)NC(=O)[C@H](CC(=O)O)NC(=O)[C@H](CC(N)=O)NC(=O)[C@H](CC(=O)O)NC(=O)[C@@H]2CCCN2C1=O [SEQ ID NO: 141] (H-DCLAFMRKCIPDNDKCCRPNLVCSRTHKWCKYVF-NH2; disulfide 2-17, 9-23, 16-30)
- IC50 [1]: 270 nM

SMILES: CC[C@H](C)[C@@H]1NC(=O)[C@@H]2CSSC[C@@H]3NC(=O)[C@H](C(C)C)NC(=O)[C@H](CC(C)C)NC(=O)[C@H](CC(N)=O)NC(=O)[C@@H]4CCCN4C(=O)[C@H](CCCNC(=N)N)NC(=O)[C@H](CSSC[C@H](NC(=O)[C@@H](N)CC(=O)O)C(=O)N[C@@H](CC(C)C)C(=O)NCC(=O)N[C@@H](Cc4ccccc4)C(=O)N[C@@H](CCC(=O)O)C(=O)N[C@@H](CCCNC(=N)N)C(=O)N[C@@H](CCCCN)C(=O)N2)NC(=O)[C@H](CSSC[C@@H](C(=O)N[C@@H](CCCCN)C(=O)N[C@@H](Cc2ccc(O)cc2)C(=O)N[C@H](C(=O)N[C@@H](Cc2ccccc2)C(N)=O)C(C)C)NC(=O)[C@H](Cc2c[nH]c4ccccc24)NC(=O)[C@H](CCCCN)NC(=O)[C@H](Cc2c[nH]cn2)NC(=O)[C@H]([C@@H](C)O)NC(=O)[C@H](CCCNC(=N)N)NC(=O)[C@H](CO)NC3=O)NC(=O)[C@H](CCCCN)NC(=O)[C@H](CC(=O)O)NC(=O)[C@H](CC(N)=O)NC(=O)[C@H](CC(=O)O)NC(=O)[C@@H]2CCCN2C1=O [SEQ ID NO: 144] (H-DCLGFERKCIPDNDKCCRPNLVCSRTHKWCKYVF-NH2; disulfide 2-17, 9-23, 16-30)
- IC50 [1]: 3510 nM

SMILES: CSCC[C@@H]1NC(=O)[C@H](Cc2ccccc2)NC(=O)CNC(=O)[C@H](CC(C)C)NC(=O)[C@@H](NC(=O)[C@@H](N)CC(=O)O)CSSC[C@@H]2NC(=O)[C@@H]3CSSC[C@@H](C(=O)N[C@@H](CCCCN)C(=O)N[C@@H](Cc4ccc(O)cc4)C(=O)N[C@H](C(=O)N[C@@H](Cc4ccccc4)C(N)=O)C(C)C)NC(=O)[C@H](Cc4c[nH]c5ccccc45)NC(=O)[C@H](CCCCN)NC(=O)[C@H](Cc4c[nH]cn4)NC(=O)[C@H]([C@@H](C)O)NC(=O)[C@H](CCCNC(=N)N)NC(=O)[C@H](CO)NC(=O)[C@H](CSSC[C@H](NC(=O)[C@H](CCCCN)NC(=O)[C@H](CCCNC(=N)N)NC1=O)C(=O)N[C@@H](CCC(=O)O)C(=O)N1CCC[C@H]1C(=O)N[C@@H](CC(=O)O)C(=O)N[C@@H](CC(N)=O)C(=O)N[C@@H](CC(=O)O)C(=O)N[C@@H](CCCCN)C(=O)N3)NC(=O)[C@H](C(C)C)NC(=O)[C@H](CC(C)C)NC(=O)[C@H](CC(N)=O)NC(=O)[C@@H]1CCCN1C(=O)[C@H](CCCNC(=N)N)NC2=O [SEQ ID NO: 146, [Glu10]GpTx-1] (H-DCLGFMRKCEPDNDKCCRPNLVCSRTHKWCKYVF-NH2; disulfide 2-17, 9-23, 16-30)
- IC50 (IonWorks Quattro, Use): 90 nM

SMILES: CC[C@H](C)[C@@H]1NC(=O)[C@@H]2CSSC[C@@H]3NC(=O)[C@H](C(C)C)NC(=O)[C@H](CC(C)C)NC(=O)[C@H](CC(N)=O)NC(=O)[C@@H]4CCCN4C(=O)[C@H](CCCNC(=N)N)NC(=O)[C@H](CSSC[C@H](NC(=O)[C@@H](N)CC(=O)O)C(=O)N[C@@H](CC(C)C)C(=O)NCC(=O)N[C@@H](Cc4ccccc4)C(=O)N[C@@H](CCSC)C(=O)N[C@@H](CCCNC(=N)N)C(=O)N[C@@H](CCCCN)C(=O)N2)NC(=O)[C@H](CSSC[C@@H](C(=O)N[C@@H](CCCCN)C(=O)N[C@@H](Cc2ccc(O)cc2)C(=O)N[C@H](C(=O)N[C@@H](Cc2ccccc2)C(N)=O)C(C)C)NC(=O)[C@H](Cc2c[nH]c4ccccc24)NC(=O)[C@H](CCCCN)NC(=O)[C@H](Cc2c[nH]cn2)NC(=O)[C@H]([C@@H](C)O)NC(=O)[C@H](CCCNC(=N)N)NC(=O)[C@H](CO)NC3=O)NC(=O)[C@H](CCCCN)NC(=O)[C@H](CC(=O)O)NC(=O)[C@H](CC(N)=O)NC(=O)[C@H](CC(=O)O)NC(=O)[C@H](CCC(=O)O)NC1=O [SEQ ID NO: 147, [Glu11]GpTx-1] (H-DCLGFMRKCIEDNDKCCRPNLVCSRTHKWCKYVF-NH2; disulfide 2-17, 9-23, 16-30)
- IC50 (IonWorks Quattro, Use): 220 nM
